What is called IC50 is the concentration that inhibits the measured activity by half. A lower IC50 goes with higher potency.

For 27 compounds, IC50 results are on record in patent publication US11390609B2, “Rho-associated protein kinase inhibitor, pharmaceutical composition comprising same, and preparation method and use thereof” (BEIJING TIDE PHARMACEUTICAL CO., LTD., priority 2017, dated 2022).

SMILES strings stand for the structures. Some results are limits rather than exact numbers.

The target of one experiment is ROCK2 (Homo sapiens, UniProt O75116). The experiment in a line: ROCK2 kinase IC50 assay (CISBIO HTRF KinEASE-STK S2 kit). Particulars: incubated at room temperature for 2 hours. It counts as biochemical. Summed up:
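HTRF KinEASE-STK S2 format with recombinant ROCK2 (1.4 ng per well), STK-S2 substrate and ATP from 5× working solutions of 1.5 μM each, run 2 h at room temperature. Nine-point dilutions from 10000 nM top concentration; 665/615 nm emission ratio normalised to no-compound and no-kinase controls, curve-fitted for IC50.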
(In general: Time-resolved FRET reads energy transfer from a long-lived donor to a nearby acceptor.)

The target in the next experiment is ROCK1 (Homo sapiens (Human), UniProt Q13464). As to the kind of experiment: ROCK1 kinase IC50 assay (biological test method similar to the ROCK2 assay). It counts as biochemical. Summed up:
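Compound dilution series (9 concentrations, top solution 10000 nM, DMSO-containing buffer) incubated 2 h at room temperature with kinase, STK-S2 substrate and ATP (5× working solutions of 1.5 µM each). Phosphorylation detected by HTRF (665/615 nm emission ratio) after 1 h; inhibition relative to full-reaction and kinase-free wells, fitted for IC50.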

Sequence of ROCK1 (Q13464 whole entry, species assumed): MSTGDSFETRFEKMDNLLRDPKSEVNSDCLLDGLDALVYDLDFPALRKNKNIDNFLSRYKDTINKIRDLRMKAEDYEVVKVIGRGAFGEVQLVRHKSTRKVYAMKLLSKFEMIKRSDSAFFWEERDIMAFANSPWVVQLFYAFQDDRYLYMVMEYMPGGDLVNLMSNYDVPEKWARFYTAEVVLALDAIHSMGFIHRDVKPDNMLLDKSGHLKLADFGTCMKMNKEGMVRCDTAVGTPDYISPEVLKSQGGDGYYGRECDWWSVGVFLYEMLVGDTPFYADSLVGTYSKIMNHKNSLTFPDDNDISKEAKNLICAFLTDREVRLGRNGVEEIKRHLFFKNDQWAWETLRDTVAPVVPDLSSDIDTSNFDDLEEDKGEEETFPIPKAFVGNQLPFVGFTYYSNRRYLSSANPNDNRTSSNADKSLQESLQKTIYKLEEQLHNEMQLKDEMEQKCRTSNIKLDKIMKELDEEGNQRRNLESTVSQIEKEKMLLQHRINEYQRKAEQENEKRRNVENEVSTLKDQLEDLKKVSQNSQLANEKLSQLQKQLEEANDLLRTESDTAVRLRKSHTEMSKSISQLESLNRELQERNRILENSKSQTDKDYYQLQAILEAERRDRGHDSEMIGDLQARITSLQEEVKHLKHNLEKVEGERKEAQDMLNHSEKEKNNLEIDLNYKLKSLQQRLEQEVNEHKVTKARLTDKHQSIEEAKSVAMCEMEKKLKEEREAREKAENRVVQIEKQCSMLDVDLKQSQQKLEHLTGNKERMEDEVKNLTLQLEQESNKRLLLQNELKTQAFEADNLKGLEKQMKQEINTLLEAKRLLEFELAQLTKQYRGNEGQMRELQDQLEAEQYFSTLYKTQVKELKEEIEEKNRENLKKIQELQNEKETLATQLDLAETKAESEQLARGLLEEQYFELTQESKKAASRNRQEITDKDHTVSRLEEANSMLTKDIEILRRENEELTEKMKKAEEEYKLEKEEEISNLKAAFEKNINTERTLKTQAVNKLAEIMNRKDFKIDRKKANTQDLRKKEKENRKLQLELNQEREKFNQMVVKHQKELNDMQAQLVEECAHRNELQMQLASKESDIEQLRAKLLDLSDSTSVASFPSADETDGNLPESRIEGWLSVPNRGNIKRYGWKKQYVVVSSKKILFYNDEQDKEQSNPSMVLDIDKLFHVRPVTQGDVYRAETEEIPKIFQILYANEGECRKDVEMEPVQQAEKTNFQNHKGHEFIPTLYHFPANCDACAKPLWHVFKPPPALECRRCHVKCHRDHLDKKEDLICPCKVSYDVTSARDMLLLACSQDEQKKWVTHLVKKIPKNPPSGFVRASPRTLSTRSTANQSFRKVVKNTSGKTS

Turning to `Cn1c(C(=O)N2CC(F)(F)C2)cc2ccc(-c3ncnc(Nc4ccc(-c5cn[nH]c5)cc4)n3)cc21` [TDI01532, (6-(4-((4-(1H-pyrazol-4-yl)phenyl)amino)-1,3,5-triazin-2-yl)-1-methyl-1H-indol-2-yl)(3,3-difluoroazetidin-1-yl)methanone], the concentration for half-maximal inhibition (IC50) at ROCK2 was 49 nM; against ROCK1, above 10000 nM.
The corresponding values for `O=C(C1CC(F)(F)C1)N1Cc2ccc(-c3ncnc(Nc4ccc(-c5cn[nH]c5)cc4)n3)cc2C1` [TDI01536, (5-(4-((4-(1H-pyrazol-4-yl)phenyl)amino)-1,3,5-triazin-2-yl)isoindolin-2-yl)(3,3-difluorocyclobutyl)methanone] are 105 nM and above 10000 nM.
As for `Cn1c(C(=O)N2CC(C(F)(F)F)C2)cc2ccc(-c3nccc(Nc4ccc(-c5cn[nH]c5)cc4)n3)cc21` [TDI01538, (6-(4-((4-(1H-pyrazol-4-yl)phenyl)amino)pyrimidin-2-yl)-1-methyl-1H-indol-2-yl)(3-(trifluoromethyl)azetidin-1-yl)methanone], the figures for the IC50 at ROCK2 and on ROCK1 were 198 nM and 4930 nM, respectively.
As for `O=C(C1CC2(CCNCC2)C1)N1Cc2ccc(-c3nccc(Nc4ccc(-c5cn[nH]c5)cc4)n3)cc2C1` [TDI01546, (5-(4-((4-(1H-pyrazol-4-yl)phenyl)amino)pyrimidin-2-yl)isoindolin-2-yl)(7-azaspiro[3.5]nonan-2-yl)methanone], the results for the IC50 against ROCK2 and on ROCK1 were 26 nM and 1550 nM, respectively.
As for `O=C(OC1CCNC1)N1Cc2ccc(-c3nccc(Nc4ccc(-c5cn[nH]c5)cc4)n3)cc2C1` (stereo not drawn) [TDI01551, pyrrolidin-3-yl 5-(4-((4-(1H-pyrazol-4-yl)phenyl)amino)pyrimidin-2-yl)isoindoline-2-carboxylate], the 50% inhibitory concentration (IC50) against ROCK2 was 31 nM; at ROCK1 it was 1730 nM.
In the case of `CN1CCC(OC(=O)N2Cc3ccc(-c4nccc(Nc5ccc(-c6cn[nH]c6)cc5)n4)cc3C2)C1` (stereo not drawn) [TDI01552, 1-methylpyrrolidin-3-yl5-(4-((4-(1H-pyrazol-4-yl)phenyl)amino)pyrimidin-2-yl)isoindoline-2-carboxylate], the half-maximal inhibitory concentration (IC50) was 51 nM against ROCK2 and 2950 nM on ROCK1.
`O=C(N1CCN(C2COC2)CC1)N1Cc2ccc(-c3nccc(Nc4ccc(-c5cn[nH]c5)cc4)n3)cc2C1` [TDI01555, (5-(4-((4-(1H-pyrazol-4-yl)phenyl)amino)pyrimidin-2-yl)isoindolin-2-yl)(4-(oxetan-3-yl)piperazin-1-yl)methanone]: the IC50 was 140 nM at ROCK2 and above 10000 nM against ROCK1.
Take `CC(C)(C)OC(=O)N1Cc2ccc(-c3nccc(Nc4ccc(-c5cn[nH]c5)cc4)n3)cc2C1` [TDI01557B, tert-butyl 5-(4-((4-(1H-pyrazol-4-yl)phenyl)amino)pyrimidin-2-yl)isoindoline-2-carboxylate]: the values for the half-maximal inhibitory concentration (IC50) on ROCK2 and at ROCK1 were 49 nM and above 10000 nM, respectively.
As for `O=C(OCc1ccccc1)N1Cc2ccc(-c3nccc(Nc4ccc(-c5cn[nH]c5)cc4)n3)cc2C1` [TDI01559, benzyl 5-(4-((4-(1H-pyrazol-4-yl)phenyl)amino)pyrimidin-2-yl)isoindolin-2-carboxylate], the half-inhibitory concentration (IC50) against ROCK2 is 170 nM; at ROCK1, above 10000 nM.
For `O=C(C1CCOCC1)N1Cc2ccc(-c3nccc(Nc4ccc(-c5cn[nH]c5)cc4)n3)cc2C1` [TDI01560, (5-(4-((4-(1H-pyrazol-4-yl)phenyl)amino)pyrimidin-2-yl)isoindolin-2-yl)(tetrahydro-2H-pyran-4-yl)methanone], the concentration for half-maximal inhibition (IC50) was 83 nM at ROCK2 and above 10000 nM at ROCK1.
Turning to `O=C(C1CC(O)C1)N1Cc2ccc(-c3nccc(Nc4ccc(-c5cn[nH]c5)cc4)n3)cc2C1` (stereo not drawn) [TDI01561, (5-(4-((4-(1H-pyrazol-4-yl)phenyl)amino)pyrimidin-2-yl)isoindolin-2-yl)(3-hydroxycyclobutyl) methanone], the IC50 against ROCK2 was 205 nM; on ROCK1 it was above 10000 nM.
Regarding `O=C(OC1CC(F)(F)C1)N1Cc2ccc(-c3nccc(Nc4ccc(-c5cn[nH]c5)cc4)n3)cc2C1` [TDI01562, 3,3-difluorocyclobutyl 5-(4-((4-(1H-pyrazol-4-yl)phenyl)amino)pyrimidin-2-yl)isoindoline-2-carboxylate], the figures for the concentration for half-maximal inhibition (IC50) against ROCK2 and at ROCK1 were 23 nM and above 10000 nM, respectively.
For `O=C(C1CC(F)(F)C1)N1Cc2ccc(-c3nc(Nc4ccc(-c5cn[nH]c5)cc4)c4cc[nH]c4n3)cc2C1` [TDI01565, (5-(4-((4-(1H-pyrazol-4-yl)phenyl)amino)-7H-pyrrolo[2,3-d]pyrimidin-2-yl)isoindolin-2-yl)(3,3-difluorocyclobutyl)methanone], the results for the IC50 against ROCK2 and against ROCK1 were 57 nM and above 10000 nM, respectively.
Turning to `NC(=O)c1cnc(-c2ccc3c(c2)CN(C(=O)C2CC(F)(F)C2)C3)nc1Nc1ccc(-c2cn[nH]c2)cc1` [TDI01567, 4-((4-(1H-pyrazol-4-yl)phenyl)amino)-2-(2-(3,3-difluorocyclobutane-1-carbonyl)isoindolin-5-yl)pyrimidin-5-carboxamide], the concentration for half-maximal inhibition (IC50) against ROCK2 is 65 nM; against ROCK1, above 10000 nM.
The corresponding values for `O=C(O)c1cnc(-c2ccc3c(c2)CN(C(=O)C2CC(F)(F)C2)C3)nc1Nc1ccc(-c2cn[nH]c2)cc1` [TDI01567C] are 29 nM and above 10000 nM.
Regarding `O=C(C1CC(F)(F)C1)N1CCc2ccc(-c3nccc(Nc4ccc5[nH]ncc5c4)n3)cc2C1` [TDI01575, (7-(4-((1H-indazol-5-yl)amino)pyrimidin-2-yl)-3,4-dihydroisoquinolin-2(1H)-yl)(3,3-difluorocyclobutyl) methanone], the IC50 on ROCK2 was 169 nM; against ROCK1 it was above 10000 nM.
In the case of `O=C(c1cc2ccc(-c3ncnc(Nc4ccc(-c5cn[nH]c5)cc4)n3)cc2[nH]1)N1CC(F)(F)C1` [TDI01581, (6-(4-((4-(1H-pyrazol-4-yl)phenyl)amino)-1,3,5-triazin-2-yl)-1H-indol-2-yl)(3,3-difluoroazetidin-1-yl)methanone], the IC50 on ROCK2 is 28 nM; at ROCK1, above 10000 nM.
For `CC(=O)N1Cc2nc(-c3ccc4c(c3)CN(C(=O)C3CC(F)(F)C3)C4)nc(Nc3ccc(-c4cn[nH]c4)cc3)c2C1` [TDI01587, 1-(4-((4-(1H-pyrazol-4-yl)phenyl)amino)-2-(2-(3,3-difluorocyclobutane-1-carbonyl)isoindolin-5-yl)-5,7-dihydro-6H-pyrrolo[3,4-d]pyrimidin-6-yl)ethan-1-one], the IC50 on ROCK2 is 25 nM; against ROCK1, above 10000 nM.
The matching figures for `O=C(C1CC(F)(F)C1)N1Cc2ccc(-c3ncc(F)c(Nc4ccc5[nH]ncc5c4)n3)cc2C1` [TDI01589, (5-(4-((1H-indazol-5-yl)amino)-5-fluoropyrimidin-2-yl)isoindolin-2-yl)(3,3-difluorocyclobutyl)methnone]: 39 nM and above 10000 nM.
As for `O=C1c2cc(-c3ncc(F)c(Nc4ccc(-c5cn[nH]c5)cc4)n3)ccc2CN1CC1CC(F)(F)C1` [TDI01590, 6-(4-((4-(1H-pyrazol-4-yl)phenyl)amino)-5-fluoropyrimidin-2-yl)-2-((3,3-difluorocyclobutyl)methyl)isoindolin-1-one], the half-maximal inhibitory concentration (IC50) against ROCK2 is 266 nM; on ROCK1, above 10000 nM.
The matching figures for `O=C(C1CC(F)(F)C1)N1CCc2cc(-c3ncc(F)c(Nc4ccc(-c5cn[nH]c5)cc4)n3)ccc2C1` [TDI01596, (6-(4-((4-(1H-pyrazol-4-yl)phenyl)amino)-5-fluoropyrimidin-2-yl)-3,4-dihydroisoquinolin-2(1H)-yl)(3,3-difluorocyclobutyl)methanone]: 275 nM and above 10000 nM.
`O=C(CC1CCOC1)N1Cc2ccc(-c3nccc(Nc4ccc(-c5cn[nH]c5)cc4)n3)cc2C1` (stereo not drawn) [TDI01597B, 1-(5-(4-((4-(1H-pyrazol-4-yl)phenyl)amino)pyrimidin-2-yl)isoindolin-2-yl)-2-(tetrahydrofuran-3-yl)ethan-1-one]: the concentration for half-maximal inhibition (IC50) at ROCK2 is 123 nM; on ROCK1, above 10000 nM.
With `O=C(C1CC(F)(F)C1)N1Cc2ccc(-c3ncc(F)c(Nc4ccc(-c5cn[nH]c5)cc4F)n3)cc2C1` [TDI01598, (3,3-difluorocyclobutyl)(5-(5-fluoro-4-((2-fluoro-4-(1H-pyrazol-4-yl)phenyl)amino)pyrimidin-2-yl)isoindolin-2-yl)methanone], the 50% inhibitory concentration (IC50) was 216 nM on ROCK2 and above 10000 nM against ROCK1.
Take `O=C(OC1CC(F)(F)C1)N1Cc2ccc(-c3ncc(F)c(Nc4ccc5[nH]ncc5c4)n3)cc2C1` [TDI01613, 3,3-difluorocyclobutyl 5-(4-((1H-indazol-5-yl)amino)-5-fluoropyrimidin-2-yl)isoindoline-2-carboxylate]: the IC50 is 27 nM at ROCK2 and above 10000 nM against ROCK1.
As to `O=C(C1CC(F)(F)C1)N1CCc2cc(-c3ncc(F)c(Nc4ccc(-c5cn[nH]c5)cc4)n3)ccc21` [TDI01618A, (5-(4-((4-(1H-pyrazol-4-yl)phenyl)amino)-5-fluoropyrimidin-2-yl)indolin-1-yl)(3,3-difluorocyclobutyl) methanone], the IC50 on ROCK2 is 129 nM; against ROCK1, above 10000 nM.
For `O=C(OC1CC(F)(F)C1)N1CCc2cc(-c3nccc(Nc4ccc(-c5cn[nH]c5)cc4)n3)ccc2C1` [TDI01621, 3,3-difluorocyclobutyl 6-(4-((4-(1H-pyrazol-4-yl)phenyl)amino)pyrimidin-2-yl)-3,4-dihydroisoquinoline-2(1H)-carboxylate], the half-maximal inhibitory concentration (IC50) at ROCK2 was 219 nM; against ROCK1 it was above 10000 nM.
In the case of `CC1(C(=O)N2Cc3ccc(-c4ncc(F)c(Nc5ccc(-c6cn[nH]c6)cc5)n4)cc3C2)CC(F)(F)C1` [TDI01628, (5-(4-((4-(1H-pyrazol-4-yl)phenyl)amino)-5-fluoropyrimidin-2-yl)isoindolin-2-yl)(3,3-difluoro-1-methylcyclobutyl) methanone], the IC50 against ROCK2 is 28 nM; at ROCK1 it was above 10000 nM.
